Laboratory results taken from US11459330B2, “Substituted bicyclic heterocyclic compounds as PRMT5 inhibitors” (LUPIN LIMITED, priority 2017, dated 2022).

How the values were obtained:
Z-138 cells [1] = test: SDMA inhibition assay; format: cell-based; conditions: Homo sapiens, 48 h, activity range 1.1 nM to 50 nM
Protocol: SDMA Inhibition Assay Protocol Z-138 cells (ATCC, CRL-3001™) were seeded at a density of 1 million cells/well in transparent, flat bottomed tissue culture grade 48-well plates. Cells were treated with various concentration of test compounds for a period of 48 h. Cell lysate was prepared using 1×CST Lysis buffer (Cell Signaling Technology, USA) and 500 ng/well/50 μL of lysate in pH 9.6 carbonate buffer was coated on 96-well Maxisorb plate and incubated overnight at 4° C. The plate was washed twice in 1×PBS containing 0.05% Tween 20 and blocked in 1% BSA for 1 h at ambient temperature. Further, the plate was incubated first with primary antibody (anti-SDMA antibody; CST #13222s) at ambient temperature for 2 h and then with HRP-conjugated secondary antibody at ambient temperature for 1 h with 2 intermittent washing steps in between.
For luminiscence based detection, HRP substrates (substrate A+substrate B in a 1:1 proportion) were added followed by luminiscence reading after 30 min in Synergy™ 2 reader (Biotek, USA).
For absorbance based detection, TMB substrate was added followed by addition of STOP solution (2N H2SO4) post colour development and absorbance ([…]) was measured in Synergy™ 2 reader (Biotek, USA). % inhibition of SDMA was calculated relative to the vehicle control samples containing media with 0.1% DMSO alone as per the formula below. (Avg. of Untreated Control−Avg. of Test)×100 Avg. of Untreated Control
(§1) The IC50 values of individual compounds were calculated with Non Linear Regression Analysis using Graph Pad Prism (Graph Pad software, Inc, USA).

PANC-1 cells = test: Anti-cancer assay (Panc-1), cell viability CellTiterGlo; format: cell-based; conditions: Homo sapiens, PANC-1, 168 h, 7 days
Protocol: (§2) Anticancer Activity Assay
(§3) Z-138 cells were seeded at a density of 2000-3000 cells per well in culture media (IMDM+10% FBS). PANC-1 (ATCC, CRL-1469™) and MIA PaCa-2 (ATCC, CRL-1420™) cells were seeded at a density of 200-300 cells per well in culture media (DMEM+10% FBS). Cells were seeded in opaque, flat bottomed tissue culture grade 96-well plates and Z-138 cells (suspension) were seeded and treated on the same day with various concentrations of test compounds. PANC-1 and MIA PaCa-2 cells, being adherent, were kept for overnight settlement at standard cell culture conditions (37° C., 5% CO2). On the following day, cells were treated with various concentrations of test compounds. Cells were treated with test compounds for a period of 96 h, 7 days and 10 days, for Z-138 cells, PANC-1 cells and MIA PaCa-2 cells, respectively. Cell viability was assessed using CellTiterGlo™ (Promega, USA) as per manufacturer's instructions. Relative Light Units (RLU) were read in Synergy™ 2 reader (Biotek, USA). The assay measures cellular ATP as an indicator of cell viability. RLU is proportional to the number of viable cells in the respective well.
(§4) % inhibition of cell viability was calculated relative to the vehicle control samples containing media with 0.1% DMSO alone as per the formula below. (Avg. of Untreated Control−Avg. of Test)×100 Avg. of Untreated Control
as §1
Anti-Cancer Assay (Panc-1)

PRMT5:MEP50 = PRMT5:MEP50 (Homo sapiens, UniProt O14744); test: PRMT5 biochemical HTRF assay (Biochemical Assay Protocol 1 / 2); conditions: biotinylated H4R3 substrate, 1 μM SAM, protocol 1 or 2 not given, activity range 300 pM to 950 pM, read-out: IC50 (PRMT5 inhibition), activity range
PRMT5:MEP50, sequence (O14744 whole entry): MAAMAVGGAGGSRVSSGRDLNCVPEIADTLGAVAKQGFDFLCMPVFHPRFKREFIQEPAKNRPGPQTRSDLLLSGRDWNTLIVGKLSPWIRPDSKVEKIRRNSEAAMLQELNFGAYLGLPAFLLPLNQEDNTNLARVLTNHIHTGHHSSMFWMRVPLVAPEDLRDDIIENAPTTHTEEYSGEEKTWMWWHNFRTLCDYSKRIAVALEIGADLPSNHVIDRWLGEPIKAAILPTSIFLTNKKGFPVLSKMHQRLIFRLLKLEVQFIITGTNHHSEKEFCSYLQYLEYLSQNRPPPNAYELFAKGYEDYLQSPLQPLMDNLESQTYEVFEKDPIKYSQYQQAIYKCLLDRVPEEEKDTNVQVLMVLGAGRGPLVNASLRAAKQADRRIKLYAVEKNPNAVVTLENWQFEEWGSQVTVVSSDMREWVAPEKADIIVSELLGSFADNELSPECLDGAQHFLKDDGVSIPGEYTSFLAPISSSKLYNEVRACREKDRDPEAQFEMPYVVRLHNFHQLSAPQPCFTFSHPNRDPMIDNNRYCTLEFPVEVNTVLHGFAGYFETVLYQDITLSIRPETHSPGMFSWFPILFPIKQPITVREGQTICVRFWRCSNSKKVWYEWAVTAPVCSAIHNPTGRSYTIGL
PRMT5:MEP50, sequence (Q9BQA1 whole entry partner): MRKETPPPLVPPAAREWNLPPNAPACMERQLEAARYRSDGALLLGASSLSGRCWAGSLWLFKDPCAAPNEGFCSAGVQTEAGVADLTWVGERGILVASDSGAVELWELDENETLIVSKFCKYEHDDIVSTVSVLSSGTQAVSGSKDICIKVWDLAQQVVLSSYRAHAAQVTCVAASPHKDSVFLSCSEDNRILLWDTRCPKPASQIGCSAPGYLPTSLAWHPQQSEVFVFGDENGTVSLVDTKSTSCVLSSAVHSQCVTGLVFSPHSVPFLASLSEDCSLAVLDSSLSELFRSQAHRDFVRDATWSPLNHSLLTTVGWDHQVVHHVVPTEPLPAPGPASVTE
Protocol: Biochemical Assay Protocol 1
(§5) Inhibitory effect of compounds on PRMT5 was assessed using HTRF detection technology in biochemical assay. Biotinylated H4R3 (residues 1-21) was used as a substrate. Compounds were pre-incubated with 15-25 ng PRMT5:MEP50 per well of a 384-well plate for 30 min at room temperature in the assay buffer containing 20 mM Bicine, pH 7.6, 25 mM NaCl, 2 mM DTT, 0.01% Chicken albumin and 0.01% Tween-20. Reaction was initiated by adding 1 μM of SAM and 50 nM biotinylated H4R3. Total assay volume was 15 μL. Reaction was continued for 120 min at room temperature. Then detection solution containing Streptavidin-Eu cryptate, anti-rabbit IgG-XL-665, Histone H4R3 Dimethyl Symmetric (H4R3me2s) Polyclonal Antibody, all prepared in HTRF detection buffer was added and further incubated for 30 min at room temperature. HTRF signal was recorded in PHERAStar microplate reader. Ratio of signal obtained at 665 nm and 620 nm was used to compute the percent inhibition of compound as follows % Inhibition=100−((Test Ratio−Negative control Ratio)/(Positive control Ratio−Negative control Ratio)*100) where Positive control=PRMT5+SAM+H4R3 Negative control=PRMT5+H4R3 Biochemical Assay Protocol 2
as §5, with “2.5” for “15-25”, “4 h” for “120 min”, “control=PRMT5+H4R3” for “control=PRMT5+H4R3 Biochemical Assay Protocol 2”

Z-138 cells [2] = test: Anti-cancer assay (Z-138), cell viability CellTiterGlo; format: cell-based; conditions: Homo sapiens, 96 h, activity range, lower bound in pM, upper bound in nM
Protocol: as §2, §3, §4, §1
Anti-Cancer Assay (Z-138)

[3] = activity range, lower bound in pM, upper bound in nM

Structure (SMILES) | IC50 (Z-138 cells [1]) [nM] | IC50 (PANC-1 cells; activity range 20 nM to 100 nM) [pM] | IC50 (PRMT5:MEP50) [nM] | IC50 (Z-138 cells [2]) [pM] | IC50 (PANC-1 cells; [3]) [pM]
CC(Cc1cc(F)c2cc(Cl)c(N)nc2c1)C1=C[C@@H](n2ccc3c(N)ncnc32)[C@H](O)[C@@H]1O (single isomer, unassigned) [Compound-33a] | 1.1 to 50 | 20000 to 100000 | – | – | –
Cc1ncnc2c1ccn2[C@@H]1C=C(C(C)Cc2cc(F)c3cc(Cl)c(N)nc3c2)[C@@H](O)[C@H]1O (single isomer, unassigned) [Compound-35b] | 1.1 to 50 | – | 0.3 to 0.95 | – | –
CC(Cc1ccc2cc(Br)c(N)nc2c1)[C@@]12C[C@@H]1[C@@H](n1ccc3c(N)ncnc31)[C@H](O)[C@@H]2O (single isomer, unassigned) [Compound-76a] | 1.1 to 50 | – | 0.3 to 0.95 | 101 to 1000 | –
CC(Cc1ccc2cc(Br)c(N)nc2c1)C1=C[C@@H](n2ccc3c(N)ncnc32)[C@H](O)[C@@H]1O (stereo partly drawn) [7b, (1S,2R,5R)-3-(1-(2-Amino-3-bromoquinolin-7-yl)propan-2-yl)-5-(4-amino-7H-pyrrolo[2,3-d]pyrimidin-7-yl)cyclopent-3-ene-1,2-diol] | – | – | – | 101 to 1000 | 300 to 20000
CC(Oc1cc(F)c2cc(Cl)c(N)nc2c1)C1=C[C@@H](n2ccc3c(N)ncnc32)[C@H](O)[C@@H]1O (stereo partly drawn) [Compound-20b, (1S,2R,5R)-3-(1-((2-amino-3-chloro-5-fluoroquinolin-7-yl)oxy)ethyl)-5-(4-amino-7H-pyrrolo[2,3-d]pyrimidin-7-yl)cyclopent-3-ene-1,2-diol] | – | – | – | 101 to 1000 | –
Nc1nc2cc(CCC3=C[C@@H](n4ccc5c(N)ncnc54)[C@H](O)[C@@H]3O)c(F)cc2cc1Cl [Compound-25, (1S,2R,5R)-3-(2-(2-amino-3-chloro-6-fluoroquinolin-7-yl)ethyl)-5-(4-amino-7H-pyrrolo[2,3-d]pyrimidin-7-yl)cyclopent-3-ene-1,2-diol] | 1.1 to 50 | – | 0.3 to 0.95 | – | 300 to 20000
Nc1nc2c(F)c(CCC3=C[C@@H](n4ccc5c(N)ncnc54)[C@H](O)[C@@H]3O)ccc2cc1Cl [Compound-26, (1S,2R,5R)-3-(2-(2-amino-3-chloro-8-fluoroquinolin-7-yl)ethyl)-5-(4-amino-7H-pyrrolo[2,3-d]pyrimidin-7-yl)cyclopent-3-ene-1,2-diol] | – | – | 0.3 to 0.95 | 101 to 1000 | –
Cn1cc(-c2ncnc3c2ccn3[C@@H]2C=C(CCc3cc(F)c4cc(Cl)c(N)nc4c3)[C@@H](O)[C@H]2O)cn1 [Compound-32, (1S,2R,5R)-3-(2-(2-amino-3-chloro-5-fluoroquinolin-7-yl)ethyl)-5-(4-(1-methyl-1H-pyrazol-4-yl)-7H-pyrrolo[2,3-d]pyrimidin-7-yl)cyclopent-3-ene-1,2-diol] | 1.1 to 50 | – | – | – | –
Cc1ncnc2c1ccn2[C@@H]1C=C(CCc2cc(F)c3cc(Cl)c(N)nc3c2)[C@@](C)(O)[C@H]1O [Compound-39, (1S,2R,5R)-3-(2-(2-amino-3-chloro-5-fluoroquinolin-7-yl)ethyl)-2-methyl-5-(4-methyl-7H-pyrrolo[2,3-d]pyrimidin-7-yl)cyclopent-3-ene-1,2-diol] | – | 20000 to 100000 | – | 101 to 1000 | –
Nc1ccc2c(F)cc(CCC3=C[C@@H](n4ccc5c(N)ncnc54)[C@H](O)[C@@H]3O)cc2n1 [Compound-47, (1S,2R,5R)-3-(2-(2-amino-5-fluoroquinolin-7-yl)ethyl)-5-(4-amino-7H-pyrrolo[2,3-d]pyrimidin-7-yl)cyclopent-3-ene-1,2-diol] | – | – | 0.3 to 0.95 | – | 300 to 20000
Nc1nc2cc(CC[C@@]34C[C@@H]3[C@@H](n3ccc5c(N)ncnc53)[C@H](O)[C@@H]4O)ccc2cc1Cl [Compound-61, (1R,2R,3S,4R,5S)-1-(2-(2-Amino-3-chloroquinolin-7-yl)ethyl)-4-(4-amino-7H-pyrrolo[2,3-d]pyrimidin-7-yl)bicyclo[3.1.0]hexane-2,3-diol] | – | – | 0.3 to 0.95 | – | 300 to 20000
Nc1nc2cc(CC[C@@]34C[C@@H]3[C@@H](n3ccc5c(N)ncnc53)[C@H](O)[C@@H]4O)c(F)cc2cc1Cl [Compound-62, (1R,2R,3S,4R,5S)-1-(2-(2-Amino-3-chloro-6-fluoroquinolin-7-yl)ethyl)-4-(4-amino-7H-pyrrolo[2,3-d]pyrimidin-7-yl) bicyclo[3.1.0]hexane-2,3-diol] | 1.1 to 50 | 20000 to 100000 | – | 101 to 1000 | –
Nc1nc2cc(CC[C@@]34C[C@@H]3[C@@H](n3ccc5c(N)ncnc53)[C@H](O)[C@@H]4O)c(F)cc2cc1Br [Compound-64, (1R,2R,3S,4R,5S)-1-(2-(2-amino-3-bromo-6-fluoroquinolin-7-yl)ethyl)-4-(4-amino-7H-pyrrolo[2,3-d]pyrimidin-7-yl)bicyclo[3.1.0]hexane-2,3-diol] | 1.1 to 50 | – | – | 101 to 1000 | 300 to 20000
Nc1nc2cc(CC[C@@]34C[C@@H]3[C@@H](n3ccc5c(N)ncnc53)[C@H](O)[C@@H]4O)ccc2cc1Br [Compound-73, (1R,2R,3S,4R,5S)-1-(2-(2-Amino-3-bromoquinolin-7-yl)ethyl)-4-(4-amino-7H-pyrrolo [2,3-d]pyrimidin-7-yl)bicyclo[3.1.0]hexane-2,3-diol] | – | – | 0.3 to 0.95 | – | 300 to 20000
